Read-outs that look alike come from different tables or passages of the source.
Columns and labels:
[1] = test system: K562; assay: Antiproliferation assay (MTS), K562 cells; format: cell-based; conditions: Homo sapiens, K562, 96 h, Table 1, read-out: Antiproliferative IC50 K562
Protocol: (§1) Cells were grown at 37° C. in a humidified atmosphere consisting of 5% CO2 and 95% air.
(§2) Antiproliferation Assays: Cells were plated in a 96-well culture plate with 2000-8000 cells per well. The compounds were prepared in DMSO and used to treat cells in a final concentration of less than 1% DMSO. Compound treatment started after overnight incubation of cells (T0). […] Compound was added to the plate in triplicate wells, and the plates were then incubated for 96 hours. DMSO (compound diluent) was also included and added to the plate in control wells. Cell viability was then determined by MTS assay using the CellTiter 96® aqueous non-radioactive cell proliferation assay system (Promega, Madison, Wis. 53711 USA). A plate reader (Vmax, Molecular Devices, Sunnyvale Calif. 94089 USA) was used to determine the optical densities, and the results were used to deduce concentration-response curves. […] The results were analyzed using linear regression software (GraphPad Prism 5; GraphPad Software Inc. La Jolla Calif. 92037 USA).

[2] = test system: Hela; assay: Antiproliferation assay (MTS), HeLa cells; format: cell-based; conditions: Homo sapiens, 96 h, Table 1, read-out: Antiproliferative IC50 Hela
Protocol: as §1, §2

[3] = test system: MDA-MB-468; assay: Antiproliferation assay (MTS), MDA-MB-468 cells; format: cell-based; conditions: Homo sapiens, MDA-MB-468, 96 h
Protocol: as §1, §2

[4] = test system: MDA-MB-231; assay: Antiproliferation assay (MTS), MDA-MB-231 cells; format: cell-based; conditions: Homo sapiens, MDA-MB-231, 96 h
Protocol: as §1, §2

[5] = test system: caspase-3, PARP, Mcl-1 and XIAP; assay: Immunoblot of apoptotic pathway proteins; format: cell-based; conditions: 1 μM, 24 or 48 hours
Protocol: Immunoblot Analysis: For immunoblotting experiments, cells were plated in a 6-well culture plate and cultured overnight. Cells were incubated with the test compounds for the indicated time and whole cell lysate was harvested by adding 1×SDS-PAGE Sample Buffer (62.5 mM Tris-HCl (pH 6.8 at 25° C.), 2% w/v SDS, 10% glycerol, 50 mM DTT, and 0.01% w/v bromophenol blue or phenol red). Proteins were separated by SDS-PAGE electrophoresis and transferred to PVDF membrane. Protein expression was immunoblotted using various primary antibodies and detected using Immobilon Western Chemiluminescent HRP Substrate (Millipore, Billerica Mass. 01821 USA). Antibodies used include anti-Cleaved Caspase3, (Rabbit, Cell Signaling Technology, Danvers Mass. 01923 USA); anti-PARP (Rabbit, Cell Signaling Technology, Danvers Mass. 01923 USA); anti-MCL-1 (mouse, BD Biosciences, San Jose Calif. 95131 USA); anti-XIAP (rabbit, Cell Signaling Technology, Danvers Mass. 01923 USA); anti-Bcl-2 (mouse, Santa Cruz Biotechnology, Santa Cruz Calif. 95060); anti-Cyclin BI (mouse, BD Biosciences, San Jose Calif. 95131 USA); anti-Cyclin D1 (mouse, Santa Cruz Biotechnology, Santa Cruz Calif. 95060); Anti-Nek2 (mouse, BD Biosciences, San Jose Calif. 95131 USA); Anti-HEC1, (rabbit, GeneTex, Inc., Irvine Calif. 92606 USA); and anti-actin (mouse, Millipore, Billerica Mass. 01821 USA).
100 nM Taxol was used as a positive control drug for apoptosis.

[6] = target: T1, hERG potassium channels (Homo sapiens, UniProt Q12809); assay: [3H]Astemizole competitive binding assay, hERG; conditions: [3H]-astemizole displacement, hERG membrane protein
T1 construct: purchased PerkinElmer
Protocol: Here, [3H] Astemizole competitive binding assays were performed to determine the ability of compounds to displace the known radioligand [3H]-astemizole from the hERG potassium channels, following standard protocol with minor modifications. In brief, assays were performed in 200 μl of binding buffer (50 mM HEPES, pH 7.4, 60 mM KCl, and 0.1% BSA) containing 1.5 nM of [3H]astemizole, 3 μg/well of hERG membrane protein (PerkinElmer), and TAI-1 (in 1% DMSO final concentration) at 27° C. for 60 min. Nonspecific binding (NSB) was determined in the presence of 10 μM astemizole. […] Binding was terminated by rapid filtration onto polyethyleneimine-presoaked, buffer-washed UniFilter-96, GF/C (Perkin Elmer) using a vacuum manifold (Porvair Sciences). Captured radiolabel signal was detected using TopCount NXT (Perkin Elmer). […] All results are derived from two independent experiments.

[7] = test system: Caco-2 cell monolayers; assay: Caco-2 cell permeability; format: in vitro ADME; conditions: 10 μM, 2 hour, both directions
Protocol: Here, Caco-2 cell line (cat. HTB-37TM) was purchased from the ATCC. Cells were cultivated in T-75 flasks in a cell culture incubator set at 37° C., 5% CO2, 95% relative humidity. Cells were allowed to grow to reach 80-90% confluence before seeding. […] The cells were grown in culture medium consisting of Dulbecco's modified Eagle's medium supplemented with 10% fetal bovine serum, 100 U/mL penicillin and 100 μg/mL streptomycin. The culture medium was replaced every 2 days and the cells were maintained at 37° C., 95% relative humidity and 5% CO2.
For a quality integrity control of the monolayers of seeded cells, the Lucifer yellow (LY) transport experiment was performed to evaluate monolayer integrity. As for a quality control of each filter, the transepithelial electrical resistance (TEER) was measured before the start of and at the end of transport experiments. Physiologically and morphologically well developed Caco-2 cell monolayers with TEER values greater than 400 Ωcm^2 were used for the studies.
The solution volumes in apical and basolateral chambers were set to 0.4 and 0.6 ml respectively. Samples were taken from both the apical and basolateral compartment at the end of the 2 hour incubation at 37° C. […] The excitation and emission wavelengths were 490 nm and 530 nm, respectively.

[8] = test system: cancer cells; assay: DNA content analysis (propidium iodide, FACS); format: cell-based
Protocol: DNA Content Analysis: Cells were plated in a 10-cm culture plate and cultured overnight. Cells were incubated with the compound for the indicated time and collected at the indicated time points. Cells were fixed with 70% ethanol overnight, stained with propidium iodide solution (1.25 mg/ml propidium iodide (Sigma) and 20 μl/ml […] in PBS) and subjected to fluorescence activated cell sorting (FACS). The results were analyzed by Cell Quest software (BD Biosciences, San Jose Calif. 95131 USA).

[9] = Body weight in mouse xenograft studies; format: in vivo, nude mice; conditions: xenograft studies FIG. 7A-7D, nude mice
Protocol: (§3) Mouse Xenograft Studies: Xenograft studies adapted from a previous published protocol (Wu et al, Cancer Res. 2008 Oct. 15; 68(20):8393-9). Female BALB/c nude (nu/nu) mice (5-8 weeks) were obtained from Lasco (Industrial Park, Tai-Ping Area, Taichung City, Taiwan). The animals were maintained under specific pathogen-free conditions, and food and water were supplied ad libitum. Housing and all procedures involving animals were performed according to protocols approved by the IACUC in DCB. Nude mice were inoculated with 17-β-estradiol pellets 72 to 96 h before implantation of BT-474 cells. For subcutaneous implantation of BT-474 cells, cells (1×10^7 in matrix gel/animal) were injected subcutaneously into the right subaxillary region. Treatment started when average tumor volume reached about 200 mm^3; mice were treated (p.o., QD/28 cycles in total) with vehicle A (0.5% methylcellulose), or candidate compounds formulated in vehicle A (10-50 mg/kg body weight). Perpendicular diameter measurement of each tumor were made with digital calipers and the volume of the tumor calculated using formula (L×W×W)/2, in which L and W represent the length and the width, respectively. Body weights were measured three times weekly.
(§4) The in vivo effectiveness of contemplated compounds in the reduction of tumor volume in nude mice is readily apparent.
(§5) Development of resistance to treatment in advanced stage tumors is a well known phenomenon. Activity of select Hec1 inhibitor in such late stage tumors was determined by re-dosing of BT474 xenografted animals that had previously subjected to 35 days of treatment with 110095 (compound 27 of Table 1). Re-treatment with 110095 was starting on day 42 and continued for 21 days.

[10] = test system: BT474 xenograft; assay: Mouse xenograft study, BT474 breast cancer; format: in vivo, nude mice; conditions: BT474 breast cancer xenograft, nude mice
Protocol: as §3, §4, §5

[11] = test system: Huh-7 xenograft; assay: Mouse xenograft study, Huh-7 liver cancer; format: in vivo; conditions: Huh-7 liver cancer xenograft, nude mice
[12] = test system: MDA-MB-231 xenograft; assay: Mouse xenograft study, MDA-MB-231 breast cancer; format: in vivo; conditions: MDA-MB-231 breast cancer xenograft, nude mice
[13] = Table 1, read-out: Antiproliferative IC50 MDA-MB-468
[14] = read-out: Antiproliferative IC50 MDA-MB-231, Table 1

T1 sequence (Q12809 whole entry): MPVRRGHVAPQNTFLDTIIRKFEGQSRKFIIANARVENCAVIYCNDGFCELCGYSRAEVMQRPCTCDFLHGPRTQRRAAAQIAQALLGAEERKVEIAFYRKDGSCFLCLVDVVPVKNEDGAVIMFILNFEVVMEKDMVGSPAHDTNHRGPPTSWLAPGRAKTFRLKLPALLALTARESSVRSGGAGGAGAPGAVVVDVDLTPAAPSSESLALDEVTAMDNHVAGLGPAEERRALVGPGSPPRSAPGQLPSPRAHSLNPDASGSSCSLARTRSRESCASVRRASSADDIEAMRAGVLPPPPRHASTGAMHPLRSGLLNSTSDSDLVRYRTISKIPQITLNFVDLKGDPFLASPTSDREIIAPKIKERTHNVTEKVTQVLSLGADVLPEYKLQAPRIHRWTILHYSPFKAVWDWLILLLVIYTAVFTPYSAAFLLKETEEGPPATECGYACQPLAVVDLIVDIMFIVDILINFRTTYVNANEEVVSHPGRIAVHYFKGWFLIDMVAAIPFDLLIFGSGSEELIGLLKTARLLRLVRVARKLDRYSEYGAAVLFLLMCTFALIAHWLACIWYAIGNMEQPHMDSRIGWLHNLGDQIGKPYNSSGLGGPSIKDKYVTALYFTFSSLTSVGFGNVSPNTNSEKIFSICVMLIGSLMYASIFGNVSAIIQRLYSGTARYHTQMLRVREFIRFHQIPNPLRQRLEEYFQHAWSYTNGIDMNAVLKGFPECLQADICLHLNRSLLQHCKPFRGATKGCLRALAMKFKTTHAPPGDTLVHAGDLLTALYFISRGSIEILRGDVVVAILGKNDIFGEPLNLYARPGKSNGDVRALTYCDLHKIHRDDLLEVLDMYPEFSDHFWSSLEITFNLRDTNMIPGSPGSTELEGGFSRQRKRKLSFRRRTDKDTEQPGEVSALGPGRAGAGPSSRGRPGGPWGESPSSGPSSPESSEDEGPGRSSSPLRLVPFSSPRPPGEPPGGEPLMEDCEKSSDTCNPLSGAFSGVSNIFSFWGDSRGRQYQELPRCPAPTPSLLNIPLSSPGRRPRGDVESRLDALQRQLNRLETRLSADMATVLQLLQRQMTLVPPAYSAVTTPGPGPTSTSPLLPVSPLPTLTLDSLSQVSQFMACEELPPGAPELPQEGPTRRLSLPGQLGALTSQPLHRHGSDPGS

Compound: COCCOc1ccc(Oc2cc(C)c(-c3csc(NC(=O)c4ccnc(F)c4)n3)c(C)c2)cc1 [Compound 20, 2-Fluoro-N-(4-{4-(4-(2-methoxyethoxy)phenoxy)-2,6-dimethylphenyl}thiazol-2-yl)isonicotinamide]
- IC50 [1]: 14.1 nM
- IC50 [2]: 10.9 nM
- IC50 [3, 13]: 10.4 nM
- IC50 [4, 14]: 7.5 nM
- levels of apoptotic (caspase-3, PARP) and anti-apoptotic (Mcl-1, XIAP) proteins [5]: cleavage of the apoptotic proteins accompanied by down-regulation of the anti-apoptotic proteins

Compound: COc1cnc(Sc2cc(C)c(-c3csc(NC(=O)c4ccncc4)n3)c(C)c2)cn1 [Compound 25, N-{4-(4-(5-Methoxypyrazin-2-ylthio)-2,6-dimethylphenyl)thiazol-2-yl}isonicotinamide]
- IC50 [6]: > 10 µM

Compound: COCCOc1cnc(Oc2cc(C)c(-c3csc(NC(=O)c4ccncc4)n3)c(C)c2)cn1 [Compound 22, N-(4-{4-(5-(2-Methoxyethoxy)pyrazin-2-yloxy)-2,6-dimethylphenyl}thiazol-2-yl)isonicotinamide]
- IC50 [6]: > 10 µM
- Caco-2 permeability [7]: moderate Caco-2 permeability

Compound: Cc1cc(Sc2cnccn2)cc(C)c1-c1csc(NC(=O)c2ccnc(F)c2)n1 [Compound 19, N-{4-(2,6-Dimethyl-4-(pyrazin-2-ylthio)phenyl)thiazol-2-yl}-2-fluoroisonicotinamide]
- IC50 [1]: 37.6 nM
- IC50 [2]: 35.6 nM
- IC50 [3, 13]: 60.1 nM
- IC50 [4, 14]: 32 nM
- levels of apoptotic (caspase-3, PARP) and anti-apoptotic (Mcl-1, XIAP) proteins [5]: cleavage of the apoptotic proteins accompanied by down-regulation of the anti-apoptotic proteins

Compound: COc1ccc(Oc2cc(C)c(-c3csc(NC(=O)c4ccnc(F)c4)n3)c(C)c2)cc1 [II-98, 2-Fluoro-N-(4-(4-(4-methoxyphenoxy)-2,6-dimethylphenyl)thiazol-2-yl)isonicotinamide]
- sub-G1 population (apoptotic cells) [8]: increase in the sub-G1 population
- IC50 ([3]; Table 2, read-out: Antiproliferative IC50 MDA-MB-468): 40 nM
- IC50 ([4]; read-out: Antiproliferative IC50 MDA-MB-231, Table 2): 20 nM

Compound: COc1ccc(Oc2cc(C)c(-c3csc(NC(=O)c4ccncc4)n3)c(C)c2)cc1 [II-95, N-(4-(4-(4-Methoxyphenoxy)-2,6-dimethylphenyl)thiazol-2-yl)isonicotinamide]
- body weight [9]: body weight remained constant
- xenograft tumor outgrowth [10]: inhibition of xenograft tumor outgrowth
- xenograft tumor outgrowth [11]: inhibition of xenograft tumor outgrowth
- xenograft tumor outgrowth [12]: inhibition of xenograft tumor outgrowth

— patent US8999983B2, “Modulators of Hec1 activity and methods therefor” (Taivex Therapeutics Corporation, priority 2011, dated 2015)
